Data reported in PubChem BioAssay (NCI).
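Method: 48-hour compound exposure of cells in 96-well plates, five concentrations, linear interpolation of endpoints. TGI marks complete inhibition of growth.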

Legend:
Assay in all cases: inhibition of tumour cell growth, NCI panel, 48 h
786-0 renal = test system: 786-0 renal
A498 renal = test system: A498 renal
A549 NSCLC = test system: A549 NSCLC
ACHN renal = test system: ACHN renal
BT-549 breast = test system: BT-549 breast
CAKI-1 renal = test system: CAKI-1 renal
CCRF-CEM leukemia = test system: CCRF-CEM leukemia
COLO 205 colon = test system: COLO 205 colon
DU-145 prostate = test system: DU-145 prostate
EKVX NSCLC = test system: EKVX NSCLC
HCC-2998 colon = test system: HCC-2998 colon
HCT-116 colon = test system: HCT-116 colon
HCT-15 colon = test system: HCT-15 colon
HL-60(TB) leukemia = test system: HL-60(TB) leukemia
HOP-62 NSCLC = test system: HOP-62 NSCLC
HOP-92 NSCLC = test system: HOP-92 NSCLC
HS 578T breast = test system: HS 578T breast
HT29 colon = test system: HT29 colon
IGROV1 ovarian = test system: IGROV1 ovarian
K-562 leukemia = test system: K-562 leukemia
KM12 colon = test system: KM12 colon
LOX IMVI melanoma = test system: LOX IMVI melanoma
M14 melanoma = test system: M14 melanoma
MDA-MB-231 breast = test system: MDA-MB-231 breast
MDA-MB-435 = test system: MDA-MB-435
MDA-N = test system: MDA-N
MOLT-4 leukemia = test system: MOLT-4 leukemia
NCI-H226 lung = test system: NCI-H226 lung
NCI-H23 lung = test system: NCI-H23 lung
NCI-H460 lung = test system: NCI-H460 lung
NCI-H522 lung = test system: NCI-H522 lung
NCI/ADR-RES ovarian = test system: NCI/ADR-RES ovarian
OVCAR-3 ovarian = test system: OVCAR-3 ovarian
OVCAR-4 ovarian = test system: OVCAR-4 ovarian
OVCAR-5 ovarian = test system: OVCAR-5 ovarian
OVCAR-8 ovarian = test system: OVCAR-8 ovarian
PC-3 prostate = test system: PC-3 prostate
RPMI-8226 leukemia = test system: RPMI-8226 leukemia
RXF 393 renal = test system: RXF 393 renal
SF-268 CNS = test system: SF-268 CNS
SK-MEL-2 melanoma = test system: SK-MEL-2 melanoma
SK-MEL-28 melanoma = test system: SK-MEL-28 melanoma
SK-MEL-5 melanoma = test system: SK-MEL-5 melanoma
SK-OV-3 ovarian = test system: SK-OV-3 ovarian
SN12C renal = test system: SN12C renal
SNB-19 CNS = test system: SNB-19 CNS
SNB-75 CNS = test system: SNB-75 CNS
SR leukemia = test system: SR leukemia
SW-620 colon = test system: SW-620 colon
T-47D breast = test system: T-47D breast
TK-10 renal = test system: TK-10 renal
U251 CNS = test system: U251 CNS
UACC-257 melanoma = test system: UACC-257 melanoma
UACC-62 melanoma = test system: UACC-62 melanoma
UO-31 renal = test system: UO-31 renal
SF-295 CNS = test system: SF-295 CNS
MCF7 breast = test system: MCF7 breast
SF-539 CNS = test system: SF-539 CNS

In the case of `O=C1OC(c2ccccc2)=N/C1=C\c1ccc(F)cc1`, the TGI (786-0 renal) is reported as > 100 µM, the TGI (A498 renal) is reported as > 100 µM and the TGI (A549 NSCLC) is reported as > 100 µM. For the same molecule, the TGI (ACHN renal) was > 100 µM, the TGI (BT-549 breast) was > 100 µM and the TGI (CAKI-1 renal) was > 100 µM. For the same molecule, the TGI (CCRF-CEM leukemia) was > 100 µM, the TGI (COLO 205 colon) was > 100 µM and the TGI (DU-145 prostate) was > 100 µM. For the same molecule, the TGI (EKVX NSCLC) was > 100 µM, the TGI (HCC-2998 colon) was > 100 µM and the TGI (HCT-116 colon) was > 100 µM. The TGI (HCT-15 colon) was > 100 µM, the TGI (HL-60(TB) leukemia) was > 100 µM and the TGI (HOP-62 NSCLC) was > 100 µM. For the same molecule, the TGI (HOP-92 NSCLC) was > 100 µM, the TGI (HS 578T breast) was > 100 µM and the TGI (HT29 colon) was > 100 µM. The TGI (IGROV1 ovarian) was > 100 µM, the TGI (K-562 leukemia) was > 100 µM and the TGI (KM12 colon) was > 100 µM. For the same molecule, the TGI (LOX IMVI melanoma) was > 100 µM, the TGI (M14 melanoma) was > 100 µM and the TGI (MDA-MB-231 breast) was > 100 µM. For the same molecule, the TGI (MDA-MB-435) was > 100 µM, the TGI (MDA-N) was > 100 µM and the TGI (MOLT-4 leukemia) was > 100 µM. For the same molecule, the TGI (NCI-H226 lung) was > 100 µM, the TGI (NCI-H23 lung) was > 100 µM and the TGI (NCI-H460 lung) was > 100 µM. The TGI (NCI-H522 lung) was > 100 µM, the TGI (NCI/ADR-RES ovarian) was > 100 µM and the TGI (OVCAR-3 ovarian) was > 100 µM. The TGI (OVCAR-4 ovarian) was > 100 µM, the TGI (OVCAR-5 ovarian) was > 100 µM and the TGI (OVCAR-8 ovarian) was > 100 µM. The TGI (PC-3 prostate) was > 100 µM, the TGI (RPMI-8226 leukemia) was > 100 µM and the TGI (RXF 393 renal) was > 100 µM. For the same molecule, the TGI (SF-268 CNS) was > 100 µM, the TGI (SK-MEL-2 melanoma) was > 100 µM and the TGI (SK-MEL-28 melanoma) was > 100 µM. The TGI (SK-MEL-5 melanoma) was > 100 µM, the TGI (SK-OV-3 ovarian) was > 100 µM and the TGI (SN12C renal) was > 100 µM. For the same molecule, the TGI (SNB-19 CNS) was > 100 µM, the TGI (SNB-75 CNS) was > 100 µM and the TGI (SR leukemia) was > 100 µM. For the same molecule, the TGI (SW-620 colon) was > 100 µM, the TGI (T-47D breast) was > 100 µM and the TGI (TK-10 renal) was > 100 µM. For the same molecule, the TGI (U251 CNS) was > 100 µM, the TGI (UACC-257 melanoma) was > 100 µM and the TGI (UACC-62 melanoma) was > 100 µM. The TGI (UO-31 renal) was > 100 µM.

Work on `O=C1OC(=O)C2=C1C(c1cccs1)C=C(c1cccnc1)N2c1ccncc1` (stereo not given) yielded a TGI (786-0 renal) of 32.9 µM, a TGI (A498 renal) of 51.5 µM and a TGI (A549 NSCLC) of 40.8 µM. For the same molecule, the TGI (ACHN renal) was 30.1 µM, the TGI (BT-549 breast) was 36.1 µM and the TGI (CAKI-1 renal) was 29.7 µM. For the same molecule, the TGI (CCRF-CEM leukemia) was 50 µM, the TGI (COLO 205 colon) was 31.8 µM and the TGI (DU-145 prostate) was 30.2 µM. It also gave a TGI (EKVX NSCLC) of 31.4 µM, a TGI (HCC-2998 colon) of 27.1 µM and a TGI (HCT-116 colon) of 27.3 µM. It also gave a TGI (HCT-15 colon) of 30.1 µM, a TGI (HL-60(TB) leukemia) of 64.4 µM and a TGI (HOP-62 NSCLC) of 41.7 µM. For the same molecule, the TGI (HOP-92 NSCLC) was 27.1 µM, the TGI (HS 578T breast) was 71.4 µM and the TGI (HT29 colon) was 30.4 µM. It also gave a TGI (IGROV1 ovarian) of 29.3 µM, a TGI (K-562 leukemia) of 84.6 µM and a TGI (KM12 colon) of 26.1 µM. For the same molecule, the TGI (LOX IMVI melanoma) was 27 µM, the TGI (M14 melanoma) was 27 µM and the TGI (MDA-MB-231 breast) was 39.6 µM. The TGI (MDA-MB-435) was 49.9 µM, the TGI (MDA-N) was 33.9 µM and the TGI (MOLT-4 leukemia) was 73.8 µM. It also gave a TGI (NCI-H226 lung) of 56.8 µM, a TGI (NCI-H23 lung) of 34.7 µM and a TGI (NCI-H460 lung) of 32.1 µM. It also gave a TGI (NCI-H522 lung) of 29.4 µM, a TGI (NCI/ADR-RES ovarian) of 82.3 µM and a TGI (OVCAR-3 ovarian) of 29.3 µM. The TGI (OVCAR-4 ovarian) was 36 µM, the TGI (OVCAR-5 ovarian) was 28.5 µM and the TGI (OVCAR-8 ovarian) was 48.7 µM. For the same molecule, the TGI (PC-3 prostate) was 29.5 µM, the TGI (RPMI-8226 leukemia) was 60.2 µM and the TGI (RXF 393 renal) was 34.5 µM. It also gave a TGI (SF-268 CNS) of 48.2 µM, a TGI (SF-295 CNS) of 35.3 µM and a TGI (SK-MEL-2 melanoma) of 32.5 µM. The TGI (SK-MEL-28 melanoma) was 75.2 µM, the TGI (SK-MEL-5 melanoma) was 40.2 µM and the TGI (SK-OV-3 ovarian) was 68.5 µM. The TGI (SN12C renal) was 32.9 µM, the TGI (SNB-19 CNS) was 38.9 µM and the TGI (SNB-75 CNS) was 35.8 µM. For the same molecule, the TGI (SR leukemia) was 8.73 µM, the TGI (SW-620 colon) was 58.1 µM and the TGI (T-47D breast) was 37 µM. It also gave a TGI (TK-10 renal) of 31.6 µM, a TGI (U251 CNS) of 35.4 µM and a TGI (UACC-257 melanoma) of 24.7 µM. For the same molecule, the TGI (UACC-62 melanoma) was 37.3 µM and the TGI (UO-31 renal) was 30.3 µM.

In the case of `CC(O)(CCCCCl)c1nc2ccccc2s1` (stereo not given), the TGI (786-0 renal) is reported as > 100 µM, the TGI (A498 renal) is reported as > 100 µM and the TGI (A549 NSCLC) is reported as > 100 µM. The TGI (ACHN renal) was > 100 µM, the TGI (BT-549 breast) was > 100 µM and the TGI (CAKI-1 renal) was > 100 µM. For the same molecule, the TGI (CCRF-CEM leukemia) was > 100 µM, the TGI (COLO 205 colon) was > 100 µM and the TGI (DU-145 prostate) was > 100 µM. For the same molecule, the TGI (EKVX NSCLC) was > 100 µM, the TGI (HCT-116 colon) was > 100 µM and the TGI (HCT-15 colon) was > 100 µM. The TGI (HL-60(TB) leukemia) was > 100 µM, the TGI (HOP-62 NSCLC) was > 100 µM and the TGI (HS 578T breast) was > 100 µM. The TGI (HT29 colon) was > 100 µM, the TGI (IGROV1 ovarian) was > 100 µM and the TGI (K-562 leukemia) was > 100 µM. The TGI (KM12 colon) was > 100 µM, the TGI (LOX IMVI melanoma) was > 100 µM and the TGI (M14 melanoma) was > 100 µM. For the same molecule, the TGI (MCF7 breast) was > 100 µM, the TGI (MDA-MB-231 breast) was > 100 µM and the TGI (MDA-MB-435) was > 100 µM. The TGI (MDA-N) was > 100 µM, the TGI (MOLT-4 leukemia) was > 100 µM and the TGI (NCI-H226 lung) was > 100 µM. The TGI (NCI-H23 lung) was > 100 µM, the TGI (NCI-H522 lung) was > 100 µM and the TGI (NCI/ADR-RES ovarian) was > 100 µM. The TGI (OVCAR-3 ovarian) was > 100 µM, the TGI (OVCAR-4 ovarian) was > 100 µM and the TGI (OVCAR-5 ovarian) was > 100 µM. The TGI (OVCAR-8 ovarian) was > 100 µM, the TGI (PC-3 prostate) was > 100 µM and the TGI (RPMI-8226 leukemia) was > 100 µM. For the same molecule, the TGI (SF-268 CNS) was > 100 µM, the TGI (SF-295 CNS) was > 100 µM and the TGI (SF-539 CNS) was > 100 µM. For the same molecule, the TGI (SK-MEL-2 melanoma) was > 100 µM, the TGI (SK-MEL-28 melanoma) was > 100 µM and the TGI (SK-MEL-5 melanoma) was > 100 µM. For the same molecule, the TGI (SK-OV-3 ovarian) was > 100 µM, the TGI (SN12C renal) was > 100 µM and the TGI (SNB-19 CNS) was > 100 µM. The TGI (SNB-75 CNS) was > 100 µM, the TGI (SR leukemia) was > 100 µM and the TGI (SW-620 colon) was > 100 µM. For the same molecule, the TGI (T-47D breast) was > 100 µM, the TGI (TK-10 renal) was > 100 µM and the TGI (U251 CNS) was > 100 µM. For the same molecule, the TGI (UACC-257 melanoma) was > 100 µM, the TGI (UACC-62 melanoma) was > 100 µM and the TGI (UO-31 renal) was > 100 µM.
